Test results: ChEMBL document CHEMBL1146963, “Synthesis and biological evaluation of alpha-galactosylceramide (KRN7000) and isoglobotrihexosylceramide (iGb3)” (Bioorg Med Chem Lett, 2006)
Activity calls are given as the source filed them.

What was measured:
Assay type in all cases: functional, cell-based
iNKT [1] = assay: Release of IL4 and IFN-gamma from human iNKT cells stimulated by C1R cell expressing human CD1d at 5 ug/ml
iNKT [2] = assay: Release of IL2 from mouse iNKT hybridoma stimulated by bone marrow-derived mouse DC at 0.2 ug/ml
iNKT [3] = assay: Release of IL4 and IFN-gamma from human iNKT cells stimulated by C1R cell expressing human CD1d at 20 ug/ml

Measured: Activity

CCCCCCCCCCCCC/C=C/[C@@H](O)[C@H](CO[C@@H]1O[C@H](CO)[C@@H](O[C@@H]2O[C@H](CO)[C@H](O)[C@H](O[C@H]3O[C@H](CO)[C@H](O)[C@H](O)[C@H]3O)[C@H]2O)[C@H](O)[C@H]1O)NC(=O)CCCCCCCCCCCCCCCCCCCCCCCCC
active: all assays above
